In patent US10246456B2, “IRAK4 inhibiting agents” (BIOGEN MA INC., priority 2014, dated 2019) one finds IC50 and EC50 data, which are given here for 21 molecules.

One assay addresses IRAK4 (Homo sapiens (Human), UniProt Q9NWZ3). In words: IRAK-4 AlphaScreen biochemical kinase assay. To be noted: 1 nM IRAK4, 1 mM ATP, 3.5 h at RT. The essentials:
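AlphaScreen read-out: streptavidin beads bind the biotinylated peptide and protein A beads bind the anti-phosphothreonine antibody, so energy transfer reports phosphorylation of the peptide. The kinase is human IRAK-4.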
Background: Bead proximity is the source of the signal in Alpha formats.

The test system of another assay is IL-6 in A549 cells. In words: Cell-based IL-6 ELISA assay in IL-1beta stimulated A549 cells. The following applies: 2 ng/ml human IL-1beta overnight. As for the experimental part:
The cell-based assays is based on IL-6 ELISA quantification. Briefly, A549 cells are cultured in DMEM with 10% FBS medium. When cells reach 80% confluence they are trypsin treated and seeded 180 ul/well in 96-well plate at 2.5×10^4 cells/well. Then, 20 ul of compound serial dilutions (starting at 10 uM, 10 points) are added to the cell plate; incubate for 30 min at 37 C and stimulated with 2 ng/ml human IL-1beta 37 C, 5% CO2 overnight. The next day 100 ul of cell supernatant per well are analyzed on a Human IL-6 Quantikine ELISA kit from R&D Systems.
In general terms: In an ELISA, binding on a coated surface is turned into a signal by an enzyme label.

A value given as a limit tells only on which side of the number the result lay.

Sequence of IRAK4 (Q9NWZ3 whole entry, species assumed): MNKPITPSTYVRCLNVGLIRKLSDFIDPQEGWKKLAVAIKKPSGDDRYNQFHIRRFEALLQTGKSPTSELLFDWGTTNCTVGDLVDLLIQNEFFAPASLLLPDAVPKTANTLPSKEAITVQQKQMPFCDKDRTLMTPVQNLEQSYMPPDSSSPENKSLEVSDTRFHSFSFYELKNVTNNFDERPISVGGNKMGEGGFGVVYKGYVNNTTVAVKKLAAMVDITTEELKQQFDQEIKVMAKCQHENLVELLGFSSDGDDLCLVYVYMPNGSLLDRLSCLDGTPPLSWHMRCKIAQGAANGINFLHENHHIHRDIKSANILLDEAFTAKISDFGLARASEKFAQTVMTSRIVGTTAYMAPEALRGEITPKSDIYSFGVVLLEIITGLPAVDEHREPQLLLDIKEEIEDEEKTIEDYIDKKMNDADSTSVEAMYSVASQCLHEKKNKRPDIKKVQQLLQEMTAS

Turning to `C[C@H](N)c1cccc(-c2cc(-c3cn(C)cn3)c3cnn(-c4cccc(CO)n4)c3c2)n1` [Example 363, (S)-(6-(6-(6-(1-aminoethyl)pyridin-2-yl)-4-(1-methyl-1H-imidazol-4-yl)-1H-indazol-1-yl)pyridin-2-yl)methanol], the IC50 (commonly the concentration at which inhibition is half-maximal) on IRAK4 is below 100 nM. The concentration for a half-maximal effect (EC50) (usually the concentration that produces a half-maximal response) in the assay on IL-6 in A549 cells was at most 1000 nM.
With `C[C@H](N)c1cccc(-c2cc(-c3ncccn3)c3cnn(-c4cccc(CO)n4)c3c2)n1` [Example 364, (S)-(6-(6-(6-(1-aminoethyl)pyridin-2-yl)-4-(pyrimidin-2-yl)-1H-indazol-1-yl)pyridin-2-yl)methanol], the half-inhibitory concentration (IC50) at IRAK4 is below 100 nM. Further, in the assay with IL-6 in A549 cells, the EC50 is at most 1000 nM.
On the same counts, the results for `Cc1cc(-c2cc(-c3cccc([C@H](C)N)n3)cc3c2cnn3-c2cccc(CO)n2)nn1C` [Example 365, (S)-(6-(6-(6-(1-aminoethyl)pyridin-2-yl)-4-(1,5-dimethyl-1H-pyrazol-3-yl)-1H-indazol-1-yl)pyridin-2-yl)methanol] are below 100 nM and at most 1000 nM.
On the same counts, the results for `Cc1cc(-c2cc(-c3cccc([C@H](C)N)n3)cc3c2cnn3-c2cccc(CO)n2)n[nH]1` [Example 366, (S)-(6-(6-(6-(1-aminoethyl)pyridin-2-yl)-4-(5-methyl-1H-pyrazol-3-yl)-1H-indazol-1-yl)pyridin-2-yl)methanol] are below 100 nM and at most 1000 nM.
The molecule `C[C@H](N)c1cccc(-c2cc(-c3cnn(C)c3)c3cnn(-c4cccc(CO)n4)c3c2)n1` [Example 367, (S)-(6-(6-(6-(1-aminoethyl)pyridin-2-yl)-4-(1-methyl-1H-pyrazol-4-yl)-1H-indazol-1-yl)pyridin-2-yl)methanol] had an IC50 at IRAK4 below 100 nM. In the assay on IL-6 in A549 cells, this molecule registered a half-maximal effective concentration (EC50) of at most 1000 nM.
`Cc1nc(-c2cc(-c3cccc([C@H](C)N)n3)cc3c2cnn3-c2cccc(CO)n2)cs1` [Example 368, (S)-(6-(6-(6-(1-aminoethyl)pyridin-2-yl)-4-(2-methylthiazol-4-yl)-1H-indazol-1-yl)pyridin-2-yl)methanol]: at IRAK4, the half-inhibitory concentration (IC50) was below 100 nM. The EC50 in the assay with IL-6 in A549 cells was at most 1000 nM.
On the same counts, the results for `C[C@H](N)c1cccc(-c2cc(-c3nc(C#N)cs3)c3cnn(-c4cccc(CO)n4)c3c2)n1` [Example 369, (S)-2-(6-(6-(1-aminoethyl)pyridin-2-yl)-1-(6-(hydroxymethyl)pyridin-2-yl)-1H-indazol-4-yl)thiazol-4-carbonitrile] are below 100 nM and at most 1000 nM.
On the same counts, the results for `C[C@H](N)c1cccc(-c2cc(-c3ccsn3)c3cnn(-c4cccc(CO)n4)c3c2)n1` [Example 370, (S)-(6-(6-(6-(1-aminoethyl)pyridi9n-2-yl)-4-(isothiazol-3-yl)-1H-indazol-1-yl)pyridin-2-yl)methanol] are below 100 nM and at most 1000 nM.
On the same counts, the results for `C[C@H](N)c1cccc(-c2cc(-c3ccccc3)c3cnn(-c4cccc(CO)n4)c3c2)n1` [Example 371, (S)-(6-(6-(6-(1-aminoethyl)pyridin-2-yl)-4-phenyl-1H-indazol-1-yl)pyridin-2-yl)methanol] are below 100 nM and at most 1000 nM.
Turning to `Cc1cnc(-c2cc(-c3cccc([C@H](C)N)n3)cc3c2cnn3-c2cccc(CO)n2)s1` [Example 372, (S)-(6-(6-(6-(1-aminoethyl)pyridin-2-yl)-4-(5-methylthiazol-2-yl)-1H-indazol-1-yl)pyridin-2-yl)methanol], the half-maximal inhibitory concentration (IC50) at IRAK4 is below 100 nM. This molecule registered an EC50 in the assay with IL-6 in A549 cells of at most 1000 nM.
For `C[C@H](N)c1cccc(-c2cc(-c3ccccn3)c3cnn(-c4cccc(CO)n4)c3c2)n1` [Example 373, (S)-(6-(6-(6-(1-aminoethyl)pyridin-2-yl)-4-(pyridin-2-yl)-1H-indazol-1-yl)pyridin-2-yl)methanol], on IRAK4, the IC50 was below 100 nM. In the assay on IL-6 in A549 cells, this molecule came in with a 50% effective concentration (EC50) of at most 1000 nM.
On the same counts, the results for `C[C@H](N)c1cccc(-c2cc(-c3nc(C(F)(F)F)co3)c3cnn(-c4cccc(CO)n4)c3c2)n1` [Example 374, (S)-(6-(6-(6-(1-aminoethyl)pyridin-2-yl)-4-(4-(trifluoromethyl)oxazol-2-yl)-1H-indazol-1-yl)pyridin-2-yl)methanol] are below 100 nM and at most 1000 nM.
On the same counts, the results for `Cc1csc(-c2cc(-c3cccc([C@H](C)N)n3)cc3c2cnn3-c2cccc(CO)n2)n1` [Example 375, (S)-(6-(6-(6-(1-aminoethyl)pyridin-2-yl)-4-(4-methylthiazol-2-yl)-1H-indazol-1-yl)pyridin-2-yl)methanol] are below 100 nM and at most 1000 nM.
On the same counts, the results for `C[C@H](N)c1cccc(-c2cc(-c3cnn(C(F)(F)F)c3)c3cnn(-c4cccc(CO)n4)c3c2)n1` [Example 376, (S)-(6-(6-(6-(1-aminoethyl)pyridin-2-yl)-4-(1-(trifluoromethyl)-1H-pyrazol-4-yl)-1H-indazol-1-yl)pyridin-2-yl)methanol] are below 100 nM and at most 1000 nM.
In the case of `Cc1nc(-c2cc(-c3cccc([C@H](C)N)n3)cc3c2cnn3-c2cccc(CO)n2)sc1C` [Example 377, (S)-(6-(6-(6-(1-aminoethyl)pyridin-2-yl)-4-(4,5-dimethylthiazol-2-yl)-1H-indazol-1-yl)pyridin-2-yl)methanol], the IC50 at IRAK4 is below 100 nM. In the assay with IL-6 in A549 cells, this molecule showed an EC50 of at most 1000 nM.
On the same counts, the results for `C[C@H](N)c1cccc(-c2cc(-c3nc(C(F)(F)F)cs3)c3cnn(-c4cccc(CO)n4)c3c2)n1` [Example 378, (S)-(6-(6-(6-(1-aminoethyl)pyridin-2-yl)-4-(4-(trifluoromethyl)thiazol-2-yl)-1H-indazol-1-yl)pyridin-2-yl)methanol] are below 100 nM and 1000 to 10000 nM.
On the same counts, the results for `C[C@H](N)c1cccc(-c2cc(-c3nccs3)c3cnn(-c4cccc(CO)n4)c3c2)n1` [Example 379, (S)-(6-(6-(6-(1-aminoethyl)pyridin-2-yl)-4-(thiazol-2-yl)-1H-indazol-1-yl)pyridin-2-yl)methanol] are below 100 nM and 1000 to 10000 nM.
On the same counts, the results for `C[C@H](N)c1cccc(-c2cc(-c3ncc(C(F)(F)F)s3)c3cnn(-c4cccc(CO)n4)c3c2)n1` [Example 380, (S)-(6-(6-(6-(1-aminoethyl)pyridin-2-yl)-4-(5-(trifluoromethyl)thiazol-2-yl)-1H-indazol-1-yl)pyridin-2-yl)methanol] are below 100 nM and 1000 to 10000 nM.
For `C[C@H](N)c1cccc(-c2cc(-c3cc[nH]n3)c3cnn(-c4cccc(CO)n4)c3c2)n1` [Example 381, (S)-(6-(6-(6-(1-aminoethyl)pyridin-2-yl)-4-(1H-pyrazol-3-yl)-1H-indazol-1-yl)pyridin-2-yl)methanol], at IRAK4, the IC50 is below 100 nM. The EC50 in the assay on IL-6 in A549 cells was 1000 to 10000 nM.
On the same counts, the results for `C[C@H](N)c1cccc(-c2ccc3cnn(-c4cncc(CO)n4)c3c2)n1` [Example 397, (S)-(6-(6-(6-(1-aminoethyl)pyridin-2-yl)-1H-indazol-1-yl)pyrazin-2-yl)methanol] are 100 to 1000 nM and at most 1000 nM.
On the same counts, the results for `CC[C@H](N)c1cccc(-c2ccc3cnn(-c4cncc(CO)n4)c3c2)n1` [Example 398, (S)-(6-(6-(6-(1-aminopropyl)pyridin-2-yl)-1H-indazol-1-yl)pyrazin-2-yl)methanol] are below 100 nM and at most 1000 nM.
